Experimental data reported in patent publication US10828515B2, “Compositions containing phenolic compounds having synergistic antioxidant benefits” (L'OREAL, priority 2016, dated 2020).

Test: oxygen radical absorbance capacity assay (ORAC)
Assay type: biochemical
Details: individual antioxidant compounds
Protocol: Synergism was determined by comparing the antioxidant capacities of combinations of components measured by oxygen radical absorbance capacity assay (ORAC) with expected or additive values of the individual compounds. As reflected in the Examples below, the expected ORAC is the combined (additive) antioxidant capacity of each individual antioxidant compound in the association, measured individually and assuming that each is functioning independently. The expected ORAC value of a certain association can be calculated by using the following equation: ORAC (total)=sum of ORAC (compound n, individually) multiplied by the Percentage (compound n, of use in a cosmetic composition), n=1, 2, 3 . . . .
The ORAC assay measures the oxidative degradation of the fluorescent probe (fluorescein) after being mixed with free radical generators such as azo-initiator compounds (2,2′-Azobis(2-amidinopropane)dihydrochloride, AAPH). Azo-initiators are considered to produce the peroxyl radical by heating, which damages the fluorescent molecule, resulting in the loss of fluorescence. Antioxidants are considered to protect the fluorescent molecule from the oxidative degeneration. By quantifying the decay of fluorescence using a fluorometer, the degree of protection is determined comparing with a standard control antioxidant Trolox. The result is expressed in μMol equivalent of Trolox.
`OC[C@H]1O[C@@H](Oc2cc(O)cc(/C=C/c3ccc(O)cc3)c2)[C@H](O)[C@@H](O)[C@@H]1O` [Polydatin] gave an ORAC of 20159 μmolTolox/g.
Molecule `Cc1c(C)c2c(c(C)c1O)CCC(C)(C(=O)O)O2` (stereo not drawn) [Trolox (VitE), Trolox] has an ORAC of 1000 μmolTolox/g.
`O=C(O)[C@H]1O[C@@H](Oc2cc3oc(-c4ccccc4)cc(=O)c3c(O)c2O)[C@H](O)[C@@H](O)[C@@H]1O` [baicalin] gave an ORAC of 4759 μmolTolox/g.
